Experiments:
[1] = system: COLO 205 xenograft tumors; test: COLO 205 xenograft model; assay type: in vivo
Procedure: Male Balb/c nude mice at 3-4 weeks old (weighing 16-18 g) were obtained from the BioLASCO Experimental Animal Center (BioLASCO, Taipei, Taiwan). All animals were maintained in pathogen free sterile isolators and in a controlled atmosphere (25±1° C. at 50% relative humidity) and with a 12 h light-12 h dark cycle according to institutional guidelines. Animals were fed with standard AIN76 diet and all food, water, caging, and bedding were sterilized prior to use. Animals had free access to food and water at all times. Food cups were replenished with fresh diet every day. All animal experimental protocol used in this study was approved by Institutional Animal Care and Use Committee of the National Kaohsiung Marine University (IACUC, NKMU, #099AAA902, Validity dates: Jan. 1, 2009 Jul. 31, 2012). After 1 week of acclimation, colon cancer COLO 205 cells (5×10^6) in 0.2 mL PBS were injected subcutaneously between the scapulae of each nude mouse. After transplantation, tumor size was measured using calipers, and the tumor volume was estimated according to the following formula: tumor volume […]=L×W2/2, where L is the length and W is the width. Once tumors reached a mean size of […], mice were randomly divided into three groups (6 animals/group). Mice were i.p. injection with pterostilbene or 3-hydroxypterostilbene (10 mg/kg/d, respectively) for 15 days, while control animals were received injection of corn oil. The diet intake and body weight of each animal was monitored every day. The tumor volume was assessed and recorded every 5 days using caliper measurements. After 15 days, the mice were sacrificed by […] and the liver, kidneys, spleen and solid tumors were excised immediately and weighed. Average tumor volume and tumor weight of each group were represent the mean±standard deviation (SD). Average tumor volumes were recorded during the treatment and average tumor weights were measured at the end of experiment. Six samples were analyzed in each group, and values represent the mean±SD. *P<0.05 and **P<0.01, compared with control group. #P<0.05, compared with pterostilbene treated group. The tumor tissues were cut into several portion for western blot analysis or stored at −80° C. […] Furthermore, in mice receiving these treatment regimens, no gross signs of toxicity were observed during visible inspections of general appearance and microscopic examinations of individual organs. • 2.

COLO 205 cells [2] = test: MTT cell viability assay, COLO 205; assay type: cell-based; conditions: Homo sapiens, COLO205, MTT, 24 h
Procedure: The human colon cancer cell lines COLO 205, HCT116 and HT29 were purchased from the American Type Culture Collection (Rockville, Md.). Cell lines were grown in RPMI1640 supplemented with 10% heat inactivated fetal bovine serum (GIBCO BRL, Grand Island, N.Y.), 100 units/mL of penicillin, 100 μg/mL of streptomycin), 2 mM L-glutamine (GIBCO BRL, Grand Island, N.Y.), and were kept at 37° C. in a humidified 5% CO2 incubator. Pterostilbene and 3-HPT were dissolved in dimethyl sulfoxide (DMSO, as final concentration of 0.05%). Cells were treated with 0.05% DMSO as vehicle control.
Cell viability was assayed by 3(4,5-dimethylthiazol-2-yl)-2,5-diphenyltetrazolium bromide (MTT). Briefly. COLO 205, HCT116 and HT29 cells were plated at a density of 2×10^2 cells/mL into 96 well plates. After overnight growth, cells were treated with a series of concentrations of pterostilbene or 3-hydroxypterostilbene for 24 h. The final concentrations of DMSO in the culture medium were <0.05%. At the end of treatment, 0.2% MTT was added and cells were incubated for a further 4 h. Cell viability was determined by scanning with an ELISA reader with a 570 nm filter.

COLO 205 cells [3] = test: Flow cytometry analysis of subG1 cell population (PI staining); assay type: cell-based, human; conditions: 24 h
Procedure: For subG1 cell population analysis, COLO 205 cells (2×10^5 cells/mL) were cultured in 12 well and treatment with various concentrations of pterostilbene or 3-hydroxypterostilbene for 24 h. The cells were then harvested, washed with PBS, re-suspended in 200 μL of PBS, and fixed in 800 μL of iced 100% ethanol at […]. After being left to stand overnight, the cell pellets were collected by centrifugation, re-suspended in 1 mL of hypotonic buffer (0.5% Triton X100 in PBS and 0.5 μg/mL RNase) with PI (50 μg/mL) and incubated at 37° C. in the dark for 30 min. Fluorescence emitted from the PIDNA complex was quantitated after excitation of the fluorescent dye by FACScan cytometry (Becton Dickinson, San Jose, Calif.). […] The results indicated a higher apoptotic potential of 3-hydroxypterostilbene for COLO 205 cells.

COLO 205 cells [4] = test: Mitochondrial membrane potential by DiOC6 flow cytometry; assay type: cell-based, human; conditions: COLO 205, 50 μM, 15 min; shifted from 224
Procedure: For mitochondrial membrane potential and ROS production, COLO 205 cells were treated as described under Example III for 15 min, and then DiOC6 [3,3′-dihexyloxacarbocyanine iodide] (40 nM) or DCFHDA [2′,7′-dichlorodihydrofluorescein diacetate] (20 μM) was added to the medium for a further 30 min at 37° C. After washing with PBS, the fluorescence intensity was determined by FAC Scan cytometry. The DiOC6 fluorescence intensity shifted to the left from 224 to 117 and 75 in pterostilbene and 3-HPT induced apoptotic COLO 205 cells, respectively. […] The role of ROS in the induction of apoptosis is well recognized. […] The imbalance of ROS concentrations could play an important role as an early mediator in 3-HPT induced apoptosis.

## COc1cc(/C=C/c2ccc(O)c(O)c2)cc(OC)c1 [3-hydroxypterostilbene, 3,4-dihydroxy-3′,5′-dimethoxy-trans-stilbene]
[1]; 10 mg/kg, Western blot, compared to the pterostilbene group
  protein levels of COX2, MMP9, VEGF, cyclin D1, and procaspase 3 in tumors: markedly decreased
[1]; 10 mg/kg/d i.p., 15 days, nude mice
  side effects or toxicity (body and organ weights, gross signs): no noticeable side effects or toxicity
[1]; 10 mg/kg/d i.p., after 15 days
  tumor volume: significantly inhibited in comparison with the pterostilbene treated mice
[1]; 10 mg/kg/d i.p., end of experiment
  tumor weight: strongly inhibited
COLO 205 cells [2]
  IC50: 9 ± 0.2 µM
COLO 205 cells [3]; 5 μM
  percentage of apoptotic COLO 205 cells (subG1): 7.2%
COLO 205 cells [3]; 10 μM
  percentage of apoptotic COLO 205 cells (subG1): 9.3%
COLO 205 cells [3]; 25 μM
  percentage of apoptotic COLO 205 cells (subG1): 20.1%
COLO 205 cells [3]; 50 μM
  percentage of apoptotic COLO 205 cells (subG1): 36.3%
COLO 205 cells [4]
  DiOC6 fluorescence intensity (mitochondrial membrane potential): 75

From patent US20160058712A1, “3-HYDROXYPTEROSTILBENE AND THERAPEUTIC APPLICATIONS THEREOF” (priority 2014, published 2016)
